Like-named read-outs stand apart in the source and are kept apart here.
Columns and labels:
[1] = test system: collagen-induced arthritis mouse model; assay: Collagen-induced arthritis (CIA) mouse model: histopathology of tibiofemoral and tarsal/phalangeal joints; type: in vivo, mouse (DBA/1J)
[2] = test system: collagen-induced arthritis mouse model; assay: Collagen-induced arthritis (CIA) mouse model: in-life disease score, paw thickness; type: in vivo, mouse (DBA/1J); conditions: for change in group average disease score - mean, Day versus Day 21 (start of treatment): 60 mg/kg PO BID from D21
[3] = test system: TLR4 signaling in primary human umbilical vein endothelial cells; assay: Cytokine response to TLR4 agonism (LPS) in primary HUVEC (ELISA); type: cell-based
Method: In this example, the following commercially available inhibitors were tested:
The results were compared with test compound 61.
Pooled primary human umbilical vein endothelial cells (HUVEC) were obtained from Lonza (Allendale, N.J.) and maintained in either complete EGM-2 defined media (Lonza) or Medium 200 supplemented with Low Serum Growth Supplement (Life Technologies, Grand Island, N.Y.). Cells at low passage (<5) were seeded at 4e5 cells/ml and allowed to adhere overnight at 37° C. in a humidified atmosphere at 5% CO2. Cells were pre-treated with test compounds for 1 h prior to TLR2 or TLR4 stimulation. To test for the effects of TLR2 agonism, the TLR2 agonist peptide Pam3CysK4 (Santa Cruz Biotechnology, Dallas, Tex.) was used at 10 μg/ml. PHC-SKKK (Enzo Life Sciences, Farmingdale, N.Y.) served as the negative control peptide. To test for the effects of TLR4 agonism, LPS from E. coli 0111:B4 (EMD Millipore, Billerica, Mass.) was used at 100 ng/ml. Cells were incubated for 22 hr, after which the supernatant was collected and analyzed for cytokine concentrations by ELISA (Life Technologies). Absorbance at 450 nm was read using the Wallac 1420 Victor^2 multilabel microplate reader (Perkin Elmer, Waltham, Mass.).

TAF1L = target: T1, TAF1L (Homo sapiens, UniProt Q8IZX4); assay: Bromodomain binding assay: TAF1L
T1 construct: made in house; host or cells: E. coli host derived from the BL21 strain (T7 phage lysate)
Method: (§1) T7 phage strains displaying bromodomains were grown in parallel in 24-well blocks in an E. coli host derived from the BL21 strain. E. coli were grown to log-phase and infected with T7 phage from a frozen stock (multiplicity of infection=0.4) and incubated with shaking at 32° C. until lysis (90-150 minutes). The lysates were centrifuged (5,000×g) and filtered (0.2 μm) to remove cell debris. […] The liganded beads were blocked with excess biotin and washed with blocking buffer (SeaBlock (Pierce), 1% BSA, 0.05 Tween 20, 1 mM DTT) to remove unbound ligand and to reduce non-specific phage binding. […] Test compounds (T62 and 46) were prepared as 1000× stocks in 100% DMSO and subsequently diluted 1:10 in monoethylene glycol (MEG) to create stocks at 100× the screening concentration (resulting stock solution is 10% DMSO/90% MEG). The compounds were then diluted directly into the assays such that the final concentration of DMSO and MEG were 0.1% and 0.9%, respectively. All reactions were performed in polystyrene 96-well plates in a final volume of 0.135 ml. […] The bromodomain concentration in the eluates was measured by qPCR. Compounds were assayed for binding activity against a panel of 40 bromodomain-containing proteins.

TAF1 = target: T2, TAF1 (Homo sapiens, UniProt P21675); assay: Bromodomain binding assay: TAF1
T2 construct: made in house; host or cells: E. coli host derived from the BL21 strain (T7 phage lysate)
Method: as §1

[4] = Group 3 (n=10): 60 mg/kg PO BID D21-D42
[5] = Group 3: 60 mg/kg PO BID D21-D42

T1 sequence (Q8IZX4 1517-1626 limits assumed): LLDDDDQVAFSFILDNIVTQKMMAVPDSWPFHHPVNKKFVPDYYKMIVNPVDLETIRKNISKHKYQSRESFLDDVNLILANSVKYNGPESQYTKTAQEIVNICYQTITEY
T2 sequence (P21675 1519-1628 limits assumed): as the sequence (Q8IZX4 1517-1626 limits assumed) above, with M46V, V51M, I102V, I107L counted along it

CCOc1cc(C(=O)N2CCC(N3CCCC3)CC2)ccc1Nc1cc2c(cn1)N(C)C(=O)c1ccccc1N2C [Compound 46, 3-(2-Ethoxy-4-(4-(pyrrolidin-1-yl)piperidine-1-carbonyl)phenylamino)-5,11-dimethyl-5H-benzo[e]pyrido[3,4-b][1,4]diazepin-10(11H)-one]
histopathology of hind-limb joints (knee, paw/tarsal), in words ([1]; Day 42, H&E): nearly twice as effective as Tofacitinib at protecting the tarsal joints | Animals with normal tarsal joints (% of total n in group) [1, 4]: 70% | Number of animals with normal tarsal joints [1, 4]: 7 | Tibiofemoral joint score: cartilage erosion/ulceration [1, 5]: 12.5 | Tibiofemoral joint score: inflammation [1, 5]: 15.0 | Tibiofemoral joint score: periosteal proliferation/erosion [1, 5]: 3.8 | Tibiofemoral joint score: synovial hyperplasia [1, 5]: 3.0 | change in group average disease score - mean, Day versus Day 21 (start of treatment) ([2]; Day 21): 0.0 | change in group average disease score - mean, Day versus Day 21 (start of treatment) ([2]; Day 24): 0.4 | change in group average disease score - mean, Day versus Day 21 (start of treatment) ([2]; Day 26): 1.3 | change in group average disease score - mean, Day versus Day 21 (start of treatment) ([2]; Day 28): 2.0 | change in group average disease score - mean, Day versus Day 21 (start of treatment) ([2]; Day 31): 2.1 | change in group average disease score - mean, Day versus Day 21 (start of treatment) ([2]; Day 33): 2.7 | change in group average disease score - mean, Day versus Day 21 (start of treatment) ([2]; Day 35): 2.4 | change in group average disease score - mean, Day versus Day 21 (start of treatment) ([2]; Day 37): 2.7 | change in group average disease score - mean, Day versus Day 21 (start of treatment) ([2]; Day 39): 2.8 | percent reduction in overall disease and total paw scores ([2]; treatment Day 21-42, Tofacitinib 15 mg/kg BID PO, doses in Table 28): about 55%

CCOc1cc(C(=O)N2CCC(N3CCN(C)CC3)CC2)ccc1Nc1cc2c(cn1)N(C)C(=O)c1ccccc1N2C [Compound 61]
G-CSF ([3]; 5 μM inhibitor, +100 ng/ml LPS): 14 ± 5 pg/mL | IL-6 ([3]; 5 μM inhibitor, +100 ng/ml LPS): 113 ± 14 pg/mL | IL-8 ([3]; 5 μM inhibitor, +100 ng/ml LPS, 22 hr): 1105 ± 25 pg/mL | G-CSF ([3]; 5 μM inhibitor, No Stimulation): 0 ± 25 pg/mL | IL-6 ([3]; 5 μM inhibitor, No Stimulation): 7 ± 1 pg/mL | G-CSF response to TLR4 agonism, in words ([3]; summary of Table 23): reduced the G-CSF response | IL-6 response, in words ([3]; summary of Table 24): reduced

CCOc1cc(C(=O)N[C@H]2CC[C@H](O)CC2)ccc1Nc1cc2c(cn1)N(C)C(=O)c1ccccc1N2C [Compound T62]
Kd (TAF1L; read-out: Kd (nM) TAF1L): 19000 nM | Kd (TAF1L; read-out: Kd for binding to TAF1L): > 20000 nM | Kd (TAF1; read-out: Kd (nM) TAF1): 12000 nM | Kd (TAF1; read-out: Kd for binding to TAF1): > 20000 nM
